Results taken from patent US11219670B2, “Targeting CAPN9/CAPNS2 activity as a therapeutic strategy for the treatment of myofibroblast differentiation and associated pathologies” (The Johns Hopkins University, priority 2014, dated 2022).
Where a SMILES comes first, the peptide text is derived from it. The star is where a group is joined. Cbz = O=C(OCc1ccccc1)*

T1: Human recombinant mini-CAPN9 (Homo sapiens, UniProt O14815)
T1 construct: made in house; host or cells: E. coli
T1 sequence (O14815 42-337 limits assumed): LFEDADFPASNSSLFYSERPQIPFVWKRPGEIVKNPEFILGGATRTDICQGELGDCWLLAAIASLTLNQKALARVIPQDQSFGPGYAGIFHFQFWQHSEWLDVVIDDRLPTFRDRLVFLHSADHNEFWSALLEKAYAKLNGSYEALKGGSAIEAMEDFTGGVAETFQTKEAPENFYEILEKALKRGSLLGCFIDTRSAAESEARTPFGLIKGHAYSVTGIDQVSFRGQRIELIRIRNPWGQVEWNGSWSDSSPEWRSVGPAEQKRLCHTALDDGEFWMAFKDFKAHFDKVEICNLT


Tests used:
[1] = test system: Primary Normal Human Lung Fibroblasts (NHLF); test: TGFβ1-induced FMT in NHLF cells (αSMA western blot); type: cell-based
Description: Resident fibroblasts have also been described to undergo transformation in the presence of high TGFβ. Using Primary Normal Human Lung Fibroblasts (NHLF), it was shown that treatment with calpain inhibitor MDL-28170 (FIG. 8A and FIG. 8B) or siRNA mediated knockdown of CAPNS2 (FIG. 8C) can inhibit TGFβ1-induced FMT as measured by αSMA.

[2] = test system: phosphorylation of SMAD2; test: TGFβ-induced phosphorylation of SMAD2 in NMuMG cells (western blot); type: cell-based, Mouse
Experimental: (§1) (FIG. 1B; Levels were normalized to the 72 h TGFβ1 only treated sample for each blot. Students t-test *p<0.05, **p<0.01, † p<0.005, †† p<0.001). […] (FIG. 1H; Levels were normalized to the 72 h TGFβ1 only treated sample for each blot. Students t-test *p<0.05, **p<0.01, † p<0.005, †† p<0.001).

[3] = test system: calpain activity (cleavage of Filamin A); test: TGFβ-induced calpain activity in NMuMG cells (cleavage of Filamin A, western blot); type: cell-based, Mouse
Experimental: as §1

[4] = test system: NMuMG cells; test: TGFβ1-induced EpMT in NMuMG cells (αSMA western blot, qPCR, immunofluorescence); type: cell-based, Mouse; settings: for TGFβ1-induced EpMT as measured by αSMA expression: western blot
Experimental: (§2) (FIG. 1B; Levels were normalized to the 72 h TGFβ1 only treated sample for each blot. Students t-test *p<0.05, **p<0.01, † p<0.005, †† p<0.001). […] (FIG. 1H; Levels were normalized to the 72 h TGFβ1 only treated sample for each blot. Students t-test *p<0.05, **p<0.01, † p<0.005, †† p<0.001). FIG. 1G and FIG. 1H show the small molecule […] SB431542 suppressed TGFβ-induced calpain activity (as measured by cleavage of Filamin A, a known calpain substrate) and TGFβ-induced phosphorylation of SMAD2, as measured by western blot (FIG. 1H) and quantified western blot data done in biological replicates (FIG. 1H; Levels were normalized to the 72 h TGFβ1 only treated sample for each blot. Student's t-test *p<0.05, **p<0.01, † p<0.005, †† p<0.001).). […] NMuMG cells pretreated with TGFβ1 for 72 hours to induce EMT, and then treated with calpain inhibitor MDL-28170 while in the continued presence of TGFβ1 for an additional 48 h or 72 h post-induction, can revert to a more epithelial phenotype as assessed by αSMA expression by western blot (FIG. 1I) and quantified western blot data done in biological replicates (FIG. 1J; Levels were normalized to TGFβ1 only treated samples within each time point. Students t-test *p<0.05).
Calpain inhibition was also found to suppress TGFβ-induced expression of genes commonly and functionally associated with fibrosis, such as collagen 1A1, vimentin and matrix metalloproteinase 2/9 (FIG. 1C). A profound decrease in E-cadherin, a cell surface protein highly expressed by epithelial cells, was observed by immunofluorescence upon stimulation with TGFβ but was prevented by treatment with calpain inhibitor MDL-28170 (FIG. 1D). […] (FIG. 1F). […]

[5] = target: T1, Human recombinant mini-CAPN9; test: Biochemical assay for calpain 9 inhibition (FRET peptide substrate, FLIPR); settings: IC50 by 4 parameter logistic fitting; 10 min preincubation; ambient temperature
Experimental: Human recombinant mini-CAPN9 was expressed in E. coli and purified as described in Davis, T. L., et al. (2007) J Mol Biol 366(1): 216-229.
All enzyme reactions are run at ambient temperature (˜25° C.) in black 384 well assay plates. Inhibitors solutions in DMSO are typically semi-log serially diluted prior to further dilution in assay buffer (Tris-HCl 20 mM, KCl 100 mM, BSA 0.1%, 1 mM DTT). Calpain enzyme stocks are diluted in assay buffer without Ca (II) just prior to use (1 μM) and incubated with serially diluted test compounds at 2× concentrations in the assay plate for 10 min.
After the compound preincubation, the FLIPR liquid handler is used to initiate the reaction by adding a 2× mix of substrate (1 μM Calpain FRET peptide substrate (5-FAM/QXL 520) Anaspec (Catalog# AS-72149)) and Ca (II) (10 mM). Reactions are measured using a FLIPR Tetra reader (Molecular Devices Inc).
Slopes (reaction rates) are calculated within the 0-2 min interval using the ScreenWorks software (Molecular Devices Inc). Slopes are plotted versus test compound concentration to obtain dose-response curves. IC50 values are obtained using 4 parameter logistic fitting.

[6] = test system: NMuMG cells; test: Reversal of pre-established TGFβ-induced myofibroblast differentiation in NMuMG cells (mesenchymal-to-epithelial transition); type: cell-based, Mouse; settings: NMuMG pretreated with TGFβ 72 h, 48 h and 72 h post-induction
Experimental: as §2
If TGFβ-induced calpain activity is necessary to maintain myofibroblast differentiation, suppression of calpain activity after pre-establishment of myofibroblast differentiation should be sufficient for mesenchymal-to-epithelial transition and provide evidence supporting reversal of a disease state.

[7] = test system: MDCK cells; test: TGFβ-induced EpMT in MDCK cells (αSMA western blot); type: cell-based, Canine
[8] = test system: PAVEC; test: TGFβ1-induced EnMT in PAVEC (qPCR, immunofluorescence); type: cell-based
Description: (FIG. 7B; E-cadherin shown in green, vimentin shown in red, DAPI nuclear marker shown in blue. Scale bar=100 μm). […] Scale bar=100 μm);
Myofibroblasts can derive from cell types other than those of epithelial origin, including endothelial cells and fibroblasts. […] (FIG. 7B). Overexpression of calpastatin inhibits TGFβ1-induced EnMT in PAVEC as measured from gene expression of αSMA, vimentin, E-cadherin, MMP2 and MMP9 (FIG. 7C) and inhibits morphological changes associated with EnMT, such as downregulation of E-cadherin/cell-cell adhesion and upregulation of vimentin. (FIG. 7D).

Row | Molecule | TGFβ1-induced FMT as measured by αSMA [1] | TGFβ-induced phosphorylation of SMAD2 [2] | TGFβ-induced calpain activity (cleavage of Filamin A) [3] | TGFβ1-induced EpMT as measured by αSMA expression [4] | IC50 [5] [µM] | E-cadherin expression after pre-established myofibroblast differentiation [6] | actin cytoskeleton organisation after pre-established myofibroblast differentiation [6] | αSMA expression after pre-established myofibroblast differentiation ([6]; continued TGFβ1) | TGFβ1-induced reorganization of the actin cytoskeleton to stress fibers ([4]; immunofluorescence) | TGFβ-induced decrease in E-cadherin ([4]; immunofluorescence) | TGFβ-induced expression of genes associated with myofibroblast differentiation and/or fibrosis (Col1A1, Vimentin, MMP2, MMP9) ([4]; quantitative PCR) | TGFβ-induced EpMT as measured from αSMA expression [7] | morphological changes associated with EnMT (downregulation of E-cadherin/cell-cell adhesion, upregulation of vimentin) ([8]; immunofluorescence) | TGFβ1-induced EnMT as measured from gene expression of αSMA, vimentin, E-cadherin, MMP2 and MMP9 ([8]; quantitative PCR)
1 | NS8593 | able to suppress | without significantly affecting | suppressed | able to potently inhibit | – | – | – | – | – | – | – | – | – | –
2 | CC(C)[C@H](NC(=O)OCc1ccccc1)C(=O)N[C@H](C=O)Cc1ccccc1 [MDL-28170] (Cbz-Val-Phe-aldehyde) | can inhibit | without significantly affecting | suppressed | antagonize TGFβ1-induced EpMT | 1.61 | reacquired expression of the epithelial marker E-cadherin | reorganized their actin cytoskeleton from stress fibers to cortical actin | decreased expression of αSMA | blocked | prevented | suppresses | suppresses TGFβ-induced EpMT in MDCK cells | – | –
3 | calpastatin: endogenous calpain inhibitor, mouse calpastatin overexpressed from a bicistronic vector with GFP (protein, UniProt P51125 1-788, looked up, co-expressed with GFP) Calpastatin: MSQPGPKPAASPRPSRGAAARHTQEHVNEKNIGSSSKPGEKKGSDEKKAASLGSSQPSRPHVGEAATATKVTASSAATSKSPSMSTTETKAIPVNKQLEGPDQKRPREQAVKTESKKPQSSEQPVVHEKKSKGGPKEGSEPKNLPKHTSSTGSKHAHKEKALSRSNEQMVSEKPSESKTKFQDVPSAGGESVAGGGTVATALDKVVGKKKEQKPFTPASPVQSTPSKPSDKSGMDAALDDLIDTLGGHEDTNRDDPPYTGPVVLDPMYSTYLEALGIKEGTIPPEYRKLLEKNEGITQPLPDSPKPMGTDQAIDALSSDFTCSSPTGKQSEKEKSTGEIFKAQSAGVTRSSVPPKEKKRKVEEEVINDQALQALSDSLGTRQPDPPSHVSQAEQVKEAKAKEERQEKCGEDEDTVPAEYRLKPAKDKDGKPLLPEPEETSKSLSESELIGELSADFDRSTYQDKPSTPAEKKSNDTSQTPPGETVPRASMCSIRSAPPKLASLKGVVPEDAVETLAGSLGTREADPEHEKTVEDKVKEKAKEEEHEKLGEKEETVPPDYRLEEVKDKDGKPLLPKESQEQLAPLSDDFLLDALSQDFSSPANISSLEFEDAKLSAAISEVVSQTPAPSTHAAAPLPGTEQKDKELDDALDELSDSLGQRPPDPDENKPLDDKVKEKIKPEHSEKLGERDDTIPPEYRHLLDNDGKDKPEKPPTKKTEKPDQDRDPIDALSEDLDSCPSTTETSKNTAKGKSKKTSSSKASKDGEKTKDSSKKTEEVSKPKAKEDARHS | – | without affecting | suppressed | virtually no αSMA protein | – | – | – | – | – | – | – | – | inhibits | inhibits
